Source: US20090048332A1, “Natural Novel Antioxidants” (HEJ Research Insitute, priority 2007, published 2009)

Test: superoxide radical scavenging assay (SOR; NADH/PMS/NBT)
Type: biochemical
Conditions: for IC50: super oxide scavenging assay, formazan absorbance at 560 nm after three minutes, concentration needed to scavenge 50% of super oxide radicals, read-out: SOI (IC50 ± SEM); for radical scavenging activity in the SOR assay: qualitative statement; for IC50 compared with propyl gallate standard: comparison in words, refers to Table 1
Description: The reaction mixture contained 10 μL of test samples (1 mM in dimethylsulfoxide), 90 μL of 0.1 M phosphate buffer (pH 7.4), 40 μL of (280 μM) β-nicotanamide adenine dinucleotide (NADH), 40 μL of (80 μM) nitro blue tetrazolium (NBT). The reaction was initiated by the addition of 20 μL of (8 μM) phenazine methosulphate (PMS). The solutions of NADH, NBT and PMS were prepared in phosphate buffer. The formation of superoxide was monitored by measuring the absorbance of the blue formazan dye after three minutes at 560 nm against the corresponding blank solutions in microtitre plate using Elisa (multiple reader spectra Max-3400). IC50 value represents concentration of compounds needed to scavenge 50% of super oxide radicals. Propyl gallate was used as a positive control. All chemicals used were of analytical grade (Sigma Chemicals, USA).

SMILES | SOR activity on per-methylation (permethylated derivatives of the depsides) | IC50 [µM] | radical scavenging activity in the SOR assay | IC50 compared with propyl gallate standard
COC(=O)c1c(C)cc(OC(=O)c2c(C)cc(OC)cc2OC)cc1OC [permethylated lecanoric acid] | lost |  |  | 
CCCOC(=O)c1cc(O)c(O)c(O)c1 [propyl gallate, Propyl gallate, reference compound] |  | 106 ± 1.7 |  | 
COc1ccc(O)c(C(C)(C)C)c1 [BHA, butylated hydroxy anisole, reference compound] |  | 96 ± 1.75 |  | 
Cc1cc(OC(=O)c2c(C)cc(O)cc2O)cc(O)c1C(=O)OC[C@H](O)[C@H](O)CO [Erythrin, erythrin] |  | 127 ± 0.97 | exceptionally high percentage of radical scavenging activity | 
CCCCCc1c2c(cc(O)c1C(=O)O)OC(=O)c1c(cc(OC)cc1C(=O)CCCC)O2 [Lobaric acid, lobaric acid] |  | 97.9 ± 1.6 | exceptionally high percentage of radical scavenging activity | lower than the propyl gallate standard
Cc1cc(OC(=O)c2c(C)cc(O)cc2O)cc(O)c1C(=O)O [Lecanoric acid, lecanoric acid] |  | 91.5 ± 2.1 | exceptionally high percentage of radical scavenging activity | lower than the propyl gallate standard
CCCc1cc(OC)cc(O)c1C(=O)Oc1c(OC)cc(CCC)c(C(=O)O)c1O [Sekikiac acid, sekikaic acid] |  | 81.97 ± 0.31 | exceptionally high percentage of radical scavenging activity | lower than the propyl gallate standard
